Data: ChEMBL document CHEMBL5247662, “Design, syntheses and biological evaluation of natural product aiphanol derivatives and analogues: Discovery of potent anticancer agents” (Bioorg Med Chem Lett, 2023)

Assays:
Type in all cases: functional, cell-based
[1] = test system: HT-29; assay: Antiproliferative activity against human HT-29 cells assessed as inhibition of cell growth measured after 48 hrs by CCK-8 assay; settings: HT-29, 48 h
[2] = test system: HCT-116; assay: Antiproliferative activity against human HCT-116 cells assessed as inhibition of cell growth measured after 48 hrs by CCK-8 assay; settings: HCT-116, 48 h
[3] = test system: MCF7; assay: Antiproliferative activity against human MCF7 cells assessed as inhibition of cell growth measured after 48 hrs by CCK-8 assay; settings: MCF7, 48 h
[4] = test system: SW1990; assay: Antiproliferative activity against human SW1990 cells assessed as inhibition of cell growth measured after 48 hrs by CCK-8 assay; settings: SW1990, 48 h
[5] = test system: HepG2; assay: Antiproliferative activity against human HepG2 cells assessed as inhibition of cell growth measured after 48 hrs by CCK-8 assay; settings: HepG2, 48 h
[6] = test system: KYSE-30; assay: Antiproliferative activity against human KYSE-30 cells expressing luciferase assessed as inhibition of cell growth measured after 48 hrs by CCK-8 assay; settings: KYSE-30, 48 h
[7] = test system: AGS; assay: Antiproliferative activity against human AGS cells assessed as inhibition of cell growth measured after 48 hrs by CCK-8 assay
[8] = test system: Bel-7402; assay: Antiproliferative activity against human Bel-7402 cells assessed as inhibition of cell growth measured after 48 hrs by CCK-8 assay; settings: Bel-7402, 48 h

SMILES	IC50 [1] [µM]	IC50 [2] [µM]	other results
CCOC(=O)/C=C/c1ccc2c(c1)O[C@@H](c1cc(OC)c(O)c(OC)c1)[C@H](CO)O2	> 50	> 50	
COc1cc([C@@H]2Oc3cc(CCc4cc(O)cc(O)c4)ccc3O[C@H]2CO)cc(OC)c1O	16.4	49.8	
COc1cc([C@@H]2Oc3cc(C=O)ccc3O[C@H]2CO)cc(OC)c1O	> 100	> 100	
OC[C@@H]1Oc2ccc(/C=C/c3cc(O)cc(O)c3)cc2O[C@H]1c1ccc(O)cc1	24.1	> 50	
COc1cc([C@@H]2Oc3cc(/C=C/c4ccc(C(F)(F)F)cc4)ccc3O[C@H]2CO)cc(OC)c1O	25.1	27.2	
COc1cc([C@@H]2Oc3cc(/C=C/c4ccccn4)ccc3O[C@H]2CO)cc(OC)c1O	33	17.1	
COc1cc([C@@H]2Oc3cc(/C=C/c4cc(O)cc(O)c4)ccc3O[C@H]2CNC(C)=O)cc(OC)c1O	8.52	47.7	
COc1cc([C@@H]2Oc3ccccc3O[C@H]2CO)cc(OC)c1O	> 100	> 100	
COc1cc([C@@H]2Oc3cc(/C=C/c4cc(O)cc(O)c4)ccc3O[C@H]2CNC(=O)c2ccc(F)c(F)c2)cc(OC)c1O	15.6	14.2	
COc1cc([C@@H]2Oc3cc(-c4ccccc4)ccc3O[C@H]2CO)cc(OC)c1O	19.1	16.7	
COc1ccc(C(=O)NC[C@@H]2Oc3ccc(/C=C/c4cc(O)cc(O)c4)cc3O[C@H]2c2cc(OC)c(O)c(OC)c2)cc1	16.1	15.9	
COc1cc([C@@H]2Oc3cc(/C=C/c4ccccc4)ccc3O[C@H]2CO)cc(OC)c1O	9.14	12.4	
COc1cc([C@@H]2Oc3cc(/C=C/c4cc(OC(C)=O)cc(OC(C)=O)c4)ccc3O[C@H]2CO)cc(OC)c1OC(C)=O	7.92	30.9	
OC[C@@H]1Oc2ccc(/C=C/c3cc(O)cc(O)c3)cc2O[C@H]1c1cc(Cl)c(O)c(Cl)c1	55.3	> 50	
COc1cc([C@@H]2Oc3cc(/C=C/c4cc(O)cc(O)c4)ccc3O[C@H]2CO)cc(OC)c1O	8.36	20	IC50 [3]: 45.3 µM; IC50 [4]: 28.3 µM; IC50 [5]: 39 µM; IC50 [6]: 61.5 µM; IC50 [7]: 38.9 µM; IC50 [8]: 64.9 µM
COc1cc(/C=C/c2ccc3c(c2)O[C@@H](c2cc(OC)c(O)c(OC)c2)[C@H](CO)O3)cc(OC)c1	14	16	
COc1cc([C@@H]2Oc3cc(/C=C/c4cc(O)cc(O)c4)ccc3O[C@H]2CNC(=O)S(C)(=O)=O)cc(OC)c1O	16.5	29.5	

Continued, in another order:

IC50 [1] [µM]	IC50 [2] [µM]	SMILES	other results
> 100	> 100	COc1cc([C@@H]2Oc3cc(/C=C/c4ccc(NC(C)=O)cc4)ccc3O[C@H]2CO)cc(OC)c1O	
14.1	27	COc1cc([C@@H]2Oc3cc(/C=C/c4cc(O)cc(O)c4)ccc3O[C@H]2CN)cc(OC)c1O	
> 200	> 200	COc1cc([C@@H]2Oc3cc(/C=C/c4cc(O)cc(O)c4)ccc3O[C@H]2CO[C@@H]2O[C@H](CO)[C@@H](O)[C@H](O)[C@H]2O)cc(OC)c1O	
5.89	4.63	COc1cc([C@@H]2Oc3cc(/C=C/c4cc(O)cc(O)c4)ccc3O[C@H]2CNC(=O)S(=O)(=O)c2ccc(C)cc2)cc(OC)c1O	IC50 [3]: 6.31 µM; IC50 [4]: 9.65 µM; IC50 [5]: 7.44 µM; IC50 [6]: 17.9 µM; IC50 [7]: 4.95 µM; IC50 [8]: 6.29 µM
10.3	21.2	COC(=O)c1ccc(/C=C/c2ccc3c(c2)O[C@@H](c2cc(OC)c(O)c(OC)c2)[C@H](CO)O3)cc1	
41.4	> 50	OC[C@@H]1Oc2ccc(/C=C/c3cc(O)cc(O)c3)cc2O[C@H]1c1cc(F)c(O)c(F)c1	
14.8	12.4	COc1cc([C@@H]2Oc3cc(/C=C/c4ccccc4C#N)ccc3O[C@H]2CO)cc(OC)c1O	
4.63	7.16	COc1cc([C@@H]2Oc3cc(/C=C/c4ccc([N+](=O)[O-])cc4)ccc3O[C@H]2CO)cc(OC)c1O	
14.9	8.83	COc1cc([C@@H]2Oc3cc(/C=C/c4ccc5ccccc5n4)ccc3O[C@H]2CO)cc(OC)c1O	
13.5	11.4	COc1cc([C@@H]2Oc3cc(/C=C/c4cccc(C#N)c4)ccc3O[C@H]2CO)cc(OC)c1O	
8.84	11.6	COc1cc([C@@H]2Oc3cc(/C=C/c4cc(O)cc(O)c4)ccc3O[C@H]2CNC(=O)c2ccc(C(F)(F)F)cc2)cc(OC)c1O	
10.4	19.9	COc1cc([C@@H]2Oc3cc(/C=C/c4cc(OC(C)=O)cc(OC(C)=O)c4)ccc3O[C@H]2COC(C)=O)cc(OC)c1OC(C)=O	
13.9	33.1	COc1cc([C@@H]2Oc3cc(/C=C/c4cc(O)cc(O)c4)ccc3O[C@H]2CNC(=O)C(C)C)cc(OC)c1O	
30.5	39.7	OC[C@@H]1Oc2ccc(/C=C/c3cc(O)cc(O)c3)cc2O[C@H]1c1cc(Br)c(O)c(Br)c1	
2.42	2.02	COc1cc([C@@H]2Oc3cc(/C=C/c4ccc(C#N)cc4)ccc3O[C@H]2CO)cc(OC)c1O	IC50 [3]: 1.21 µM; IC50 [4]: 1.52 µM; IC50 [5]: 2.23 µM; IC50 [6]: 2.97 µM; IC50 [7]: 0.81 µM; IC50 [8]: 0.86 µM
7.7	14.5	CCCCCCCCCCCCC(=O)NC[C@@H]1Oc2ccc(/C=C/c3cc(O)cc(O)c3)cc2O[C@H]1c1cc(OC)c(O)c(OC)c1	
19.6	15.9	COc1cc([C@@H]2Oc3cc(/C=C/c4cc(O)cc(O)c4)ccc3O[C@H]2CNC(=O)c2ccccc2)cc(OC)c1O	
22.9	42.2	COc1cc([C@@H]2Oc3cc(/C=C/c4ccsc4)ccc3O[C@H]2CO)cc(OC)c1O	
7.9	16.8	COc1cc([C@@H]2Oc3cc(/C=C/c4cc(O)cc(O)c4)ccc3O[C@H]2CNC(=O)c2ccc(F)cc2)cc(OC)c1O	
25	28.3	COc1cc([C@@H]2Oc3cc(/C=C/c4ccc(I)cc4)ccc3O[C@H]2CO)cc(OC)c1O	
> 200	> 200	COc1cc([C@@H]2Oc3cc(/C=C/c4cc(O)cc(O)c4)ccc3O[C@H]2CO[C@@H]2O[C@H](CO)[C@H](O)[C@H](O)[C@H]2O)cc(OC)c1O	
7.08	12.3	COc1cc([C@@H]2Oc3cc(/C=C/c4cc(O)cc(O)c4)ccc3O[C@H]2CNC(=O)c2cc(F)c(F)c(F)c2)cc(OC)c1O	
4.4	3.86	COc1cc(C2Oc3cc(/C=C/c4nc(C)c5ccccc5n4)ccc3OC2CO)cc(OC)c1O (single isomer, unassigned)	
